Data reported in PMC6445160, “Naphthoquinone amino acid derivatives, synthesis and biological activity as proteasome inhibitors” (Journal of Enzyme Inhibition and Medicinal Chemistry, 2017).

Test system: T1, 20S proteasome β2 subunit, trypsin-like (T-L) activity
T1 construct: gene PSMB7; native 20S proteasome purified from lymphoblastoid cells
Experiment: fluorogenic AMC peptide hydrolysis
Type: biochemical
Settings: Boc-LRR-AMC, 37 °C, 30 min, enzyme pretreated with compound
From the text: fluorogenic AMC peptide hydrolysis on 20S proteasome β2 subunit, trypsin-like (T-L) activity

Q: `Cc1c(O)cccc1C(=O)N[C@@H](CC(C)C)C(=O)NCCNC1=C(Cl)C(=O)c2ccccc2C1=O` [compound 1, HMB-Leu-NH-(CH2)2-NH-ClNafQ] was tested. Which IC50 did it give?
A: Its IC50 is 77.4 ± 6.51 µM.

Q: How did the IC50 turn out when `CC(C)C[C@H](NC(=O)c1ccc([N+](=O)[O-])cc1)C(=O)NCCNC1=C(Cl)C(=O)c2ccccc2C1=O` [compound 2, NBz-Leu-NH-(CH2)2-NH-ClNafQ] was run?
A: The IC50 was 65.3 ± 5.91 µM.

Q: `CC(C)C[C@H](NC(=O)c1ccccc1)C(=O)NCCNC1=C(Cl)C(=O)c2ccccc2C1=O` [compound 3, Bz-Leu-NH-(CH2)2-NH-ClNafQ] was tested. Which IC50 did it give?
A: The IC50 was 58.4 ± 5.13 µM.

Q: `CC(C)C[C@H](NC(=O)c1cccc2ccccc12)C(=O)NCCNC1=C(Cl)C(=O)c2ccccc2C1=O` [compound 4, 1-NaftCO-Leu-NH-(CH2)2-NH-ClNafQ] was tested. Which IC50 did it give?
A: The IC50 was 21.1 ± 1.85 µM.

Q: Which IC50 does the source give for `Cc1c(O)cccc1C(=O)N[C@@H](CC(N)=O)C(=O)NCCNC1=C(Cl)C(=O)c2ccccc2C1=O` [compound 5, HMB-Asn-NH-(CH2)2-NH-ClNafQ] here?
A: The IC50 was 68.4 ± 5.14 µM.

Q: How did the IC50 turn out when `NC(=O)C[C@H](NC(=O)c1ccc([N+](=O)[O-])cc1)C(=O)NCCNC1=C(Cl)C(=O)c2ccccc2C1=O` [compound 6, NBz-Asn-NH-(CH2)2-NH-ClNafQ] was run?
A: Its IC50 is 17.2 ± 1.09 µM.

Q: `NC(=O)C[C@H](NC(=O)c1ccccc1)C(=O)NCCNC1=C(Cl)C(=O)c2ccccc2C1=O` [compound 7, Bz-Asn-NH-(CH2)2-NH-ClNafQ] was tested. Which IC50 did it give?
A: Its IC50 is 49.7 ± 3.87 µM.

Q: With `NC(=O)C[C@H](NC(=O)c1cccc2ccccc12)C(=O)NCCNC1=C(Cl)C(=O)c2ccccc2C1=O` [compound 8, 1-NaftCO-Asn-NH-(CH2)2-NH-ClNafQ] as the compound, how does the IC50 read?
A: The IC50 was 35.2 ± 2.77 µM.

Q: How did the IC50 turn out when `Cc1c(O)cccc1C(=O)N[C@@H](Cc1ccccc1)C(=O)NCCNC1=C(Cl)C(=O)c2ccccc2C1=O` [compound 9, HMB-Phe-NH-(CH2)2-NH-ClNafQ] was run?
A: The IC50 was over 100 µM.

Q: For `O=C(N[C@@H](Cc1ccccc1)C(=O)NCCNC1=C(Cl)C(=O)c2ccccc2C1=O)c1ccc([N+](=O)[O-])cc1` [compound 10, NBz-Phe-NH-(CH2)2-NH-ClNafQ], which IC50 is on record?
A: The IC50 was 35.4 ± 2.91 µM.

Q: `O=C(N[C@@H](Cc1ccccc1)C(=O)NCCNC1=C(Cl)C(=O)c2ccccc2C1=O)c1ccccc1` [compound 11, Bz-Phe-NH-(CH2)2-NH-ClNafQ] was tested. Which IC50 did it give?
A: The IC50 was 53.2 ± 6.7 µM.

Q: With `O=C1C(Cl)=C(NCCNC(=O)[C@H](Cc2ccccc2)NC(=O)c2cccc3ccccc23)C(=O)c2ccccc21` [compound 12, 1-NaftCO-Phe-NH-(CH2)2-NH-ClNafQ] as the compound, how does the IC50 read?
A: The IC50 was 49.8 ± 3.97 µM.

Q: How did the IC50 turn out when `Cc1c(O)cccc1C(=O)N[C@@H](CO)C(=O)NCCNC1=C(Cl)C(=O)c2ccccc2C1=O` [compound 13, HMB-Ser-NH-(CH2)2-NH-ClNafQ] was run?
A: The IC50 was over 100 µM.

Q: `O=C(NC(CO)C(=O)NCCNC1=C(Cl)C(=O)c2ccccc2C1=O)c1ccc([N+](=O)[O-])cc1` (stereo not drawn) [compound 14, NBz-Ser-NH-(CH2)2-NH-ClNafQ] was tested. Which IC50 did it give?
A: Its IC50 is 63.4 ± 7.01 µM.

Q: With `O=C(N[C@@H](CO)C(=O)NCCNC1=C(Cl)C(=O)c2ccccc2C1=O)c1ccccc1` [compound 15, Bz-Ser-NH-(CH2)2-NH-ClNafQ] as the compound, how does the IC50 read?
A: Its IC50 is 53.8 ± 4.88 µM.

Q: With `O=C1C(Cl)=C(NCCNC(=O)[C@H](CO)NC(=O)c2cccc3ccccc23)C(=O)c2ccccc21` [compound 16, 1-NaftCO-Ser-NH-(CH2)2-NH-ClNafQ] as the compound, how does the IC50 read?
A: Its IC50 is over 100 µM.

Q: For `Cc1c(O)cccc1C(=O)N[C@@H](CC(C)C)C(=O)NCCCCNC1=C(Cl)C(=O)c2ccccc2C1=O` [compound 17, HMB-Leu-NH-(CH2)4-NH-ClNafQ], which IC50 is on record?
A: The IC50 was over 100 µM.

Q: Which IC50 does the source give for `O=C1C(Cl)=C(NCCCCNC(=O)[C@H](Cc2ccccc2)NC(=O)c2cccc3ccccc23)C(=O)c2ccccc21` [compound 28, 1-NaftCO-Phe-NH-(CH2)4-NH-ClNafQ] here?
A: Its IC50 is 79.7 ± 6.97 µM.

Q: `Cc1c(O)cccc1C(=O)N[C@@H](CO)C(=O)NCCCCNC1=C(Cl)C(=O)c2ccccc2C1=O` [compound 29, HMB-Ser-NH-(CH2)4-NH-ClNafQ] was tested. Which IC50 did it give?
A: Its IC50 is 80.2 ± 6.91 µM.

Q: For `O=C(NC(CO)C(=O)NCCCCNC1=C(Cl)C(=O)c2ccccc2C1=O)c1ccc([N+](=O)[O-])cc1` (stereo not drawn) [compound 30, NBz-Ser-NH-(CH2)4-NH-ClNafQ], which IC50 is on record?
A: The IC50 was 83.3 ± 7.21 µM.

Q: For `O=C1C(Cl)=C(NCCCCNC(=O)[C@H](CO)NC(=O)c2cccc3ccccc23)C(=O)c2ccccc21` [compound 32, 1-NaftCO-Ser-NH-(CH2)4-NH-ClNafQ], which IC50 is on record?
A: The IC50 was 60.8 ± 4.88 µM.

Test system: T2, 20S proteasome β5 subunit, chymotrypsin-like (ChT-L) activity
T2 construct: gene PSMB5; native 20S proteasome purified from lymphoblastoid cells
Experiment: fluorogenic AMC peptide hydrolysis
Type: biochemical
Settings: Suc-LLVY-AMC, 37 °C, 30 min, enzyme pretreated with compound

Q: For “1-NaftCO-Asn-NH-cHx-NH-ClNafQ [compound 40]”, which IC50 is on record?
A: The IC50 was over 100 µM.

Q: With “1-NaftCO-Phe-NH-cHx-NH-ClNafQ [compound 44]” as the compound, how does the IC50 read?
A: The IC50 was over 100 µM.

Q: How did the IC50 turn out when “1-NaftCO-Ser-NH-cHx-NH-ClNafQ [compound 48]” was run?
A: The IC50 was over 100 µM.

Q: For `Cc1c(O)cccc1C(=O)N[C@@H](CO)C(=O)NCCNC1=C(Cl)C(=O)c2ccccc2C1=O` [compound 13, HMB-Ser-NH-(CH2)2-NH-ClNafQ], which IC50 is on record?
A: Its IC50 is over 100 µM.

Q: For `O=C1C(Cl)=C(NCCNC(=O)[C@H](CO)NC(=O)c2cccc3ccccc23)C(=O)c2ccccc21` [compound 16, 1-NaftCO-Ser-NH-(CH2)2-NH-ClNafQ], which IC50 is on record?
A: Its IC50 is over 100 µM.

Test system: T2, 20S proteasome β5 subunit, chymotrypsin-like (ChT-L) activity
Experiment: fluorogenic AMC peptide hydrolysis
Type: biochemical
Settings: Suc-LLVY-AMC, 37 °C, 30 min, enzyme pretreated with compound; read-out: IC50 (μm)^aChT-L
From the text: fluorogenic AMC peptide hydrolysis on 20S proteasome β5 subunit, chymotrypsin-like (ChT-L) activity

Q: `Cc1c(O)cccc1C(=O)N[C@@H](CC(C)C)C(=O)NCCNC1=C(Cl)C(=O)c2ccccc2C1=O` [compound 1, HMB-Leu-NH-(CH2)2-NH-ClNafQ] was tested. Which IC50 did it give?
A: Its IC50 is over 100 µM.

Q: With `CC(C)C[C@H](NC(=O)c1ccc([N+](=O)[O-])cc1)C(=O)NCCNC1=C(Cl)C(=O)c2ccccc2C1=O` [compound 2, NBz-Leu-NH-(CH2)2-NH-ClNafQ] as the compound, how does the IC50 read?
A: Its IC50 is over 100 µM.

Q: How did the IC50 turn out when `CC(C)C[C@H](NC(=O)c1ccccc1)C(=O)NCCNC1=C(Cl)C(=O)c2ccccc2C1=O` [compound 3, Bz-Leu-NH-(CH2)2-NH-ClNafQ] was run?
A: Its IC50 is over 100 µM.

Q: `CC(C)C[C@H](NC(=O)c1cccc2ccccc12)C(=O)NCCNC1=C(Cl)C(=O)c2ccccc2C1=O` [compound 4, 1-NaftCO-Leu-NH-(CH2)2-NH-ClNafQ] was tested. Which IC50 did it give?
A: Its IC50 is 0.82 ± 0.08 µM.

Q: With `Cc1c(O)cccc1C(=O)N[C@@H](CC(N)=O)C(=O)NCCNC1=C(Cl)C(=O)c2ccccc2C1=O` [compound 5, HMB-Asn-NH-(CH2)2-NH-ClNafQ] as the compound, how does the IC50 read?
A: The IC50 was 8.47 ± 0.75 µM.

Q: With `NC(=O)C[C@H](NC(=O)c1ccc([N+](=O)[O-])cc1)C(=O)NCCNC1=C(Cl)C(=O)c2ccccc2C1=O` [compound 6, NBz-Asn-NH-(CH2)2-NH-ClNafQ] as the compound, how does the IC50 read?
A: Its IC50 is 0.92 ± 0.09 µM.

Q: Which IC50 does the source give for `NC(=O)C[C@H](NC(=O)c1ccccc1)C(=O)NCCNC1=C(Cl)C(=O)c2ccccc2C1=O` [compound 7, Bz-Asn-NH-(CH2)2-NH-ClNafQ] here?
A: Its IC50 is 7.99 ± 0.67 µM.

Q: Which IC50 does the source give for `NC(=O)C[C@H](NC(=O)c1cccc2ccccc12)C(=O)NCCNC1=C(Cl)C(=O)c2ccccc2C1=O` [compound 8, 1-NaftCO-Asn-NH-(CH2)2-NH-ClNafQ] here?
A: Its IC50 is 76.2 ± 6.82 µM.

Q: For `Cc1c(O)cccc1C(=O)N[C@@H](Cc1ccccc1)C(=O)NCCNC1=C(Cl)C(=O)c2ccccc2C1=O` [compound 9, HMB-Phe-NH-(CH2)2-NH-ClNafQ], which IC50 is on record?
A: Its IC50 is 0.85 ± 0.07 µM.

Q: Which IC50 does the source give for `O=C(N[C@@H](Cc1ccccc1)C(=O)NCCNC1=C(Cl)C(=O)c2ccccc2C1=O)c1ccc([N+](=O)[O-])cc1` [compound 10, NBz-Phe-NH-(CH2)2-NH-ClNafQ] here?
A: Its IC50 is 0.77 ± 0.06 µM.

Q: `O=C(N[C@@H](Cc1ccccc1)C(=O)NCCNC1=C(Cl)C(=O)c2ccccc2C1=O)c1ccccc1` [compound 11, Bz-Phe-NH-(CH2)2-NH-ClNafQ] was tested. Which IC50 did it give?
A: Its IC50 is 6.22 ± 0.48 µM.

Q: For `O=C1C(Cl)=C(NCCNC(=O)[C@H](Cc2ccccc2)NC(=O)c2cccc3ccccc23)C(=O)c2ccccc21` [compound 12, 1-NaftCO-Phe-NH-(CH2)2-NH-ClNafQ], which IC50 is on record?
A: The IC50 was 9.14 ± 1.02 µM.

Q: Which IC50 does the source give for `O=C(NC(CO)C(=O)NCCNC1=C(Cl)C(=O)c2ccccc2C1=O)c1ccc([N+](=O)[O-])cc1` (stereo not drawn) [compound 14, NBz-Ser-NH-(CH2)2-NH-ClNafQ] here?
A: Its IC50 is 83.5 ± 8.03 µM.

Q: With `O=C(N[C@@H](CO)C(=O)NCCNC1=C(Cl)C(=O)c2ccccc2C1=O)c1ccccc1` [compound 15, Bz-Ser-NH-(CH2)2-NH-ClNafQ] as the compound, how does the IC50 read?
A: The IC50 was 24.1 ± 1.98 µM.

Q: How did the IC50 turn out when `Cc1c(O)cccc1C(=O)N[C@@H](CC(C)C)C(=O)NCCCCNC1=C(Cl)C(=O)c2ccccc2C1=O` [compound 17, HMB-Leu-NH-(CH2)4-NH-ClNafQ] was run?
A: Its IC50 is 11.5 ± 1.02 µM.

Q: How did the IC50 turn out when `O=C1C(Cl)=C(NCCCCNC(=O)[C@H](Cc2ccccc2)NC(=O)c2cccc3ccccc23)C(=O)c2ccccc21` [compound 28, 1-NaftCO-Phe-NH-(CH2)4-NH-ClNafQ] was run?
A: Its IC50 is 9.3 ± 1.02 µM.

Q: For `Cc1c(O)cccc1C(=O)N[C@@H](CO)C(=O)NCCCCNC1=C(Cl)C(=O)c2ccccc2C1=O` [compound 29, HMB-Ser-NH-(CH2)4-NH-ClNafQ], which IC50 is on record?
A: The IC50 was 45.7 ± 2.59 µM.

Q: How did the IC50 turn out when `O=C(NC(CO)C(=O)NCCCCNC1=C(Cl)C(=O)c2ccccc2C1=O)c1ccc([N+](=O)[O-])cc1` (stereo not drawn) [compound 30, NBz-Ser-NH-(CH2)4-NH-ClNafQ] was run?
A: Its IC50 is 88.7 ± 8.03 µM.

Q: With `O=C1C(Cl)=C(NCCCCNC(=O)[C@H](CO)NC(=O)c2cccc3ccccc23)C(=O)c2ccccc21` [compound 32, 1-NaftCO-Ser-NH-(CH2)4-NH-ClNafQ] as the compound, how does the IC50 read?
A: The IC50 was over 100 µM.
